Several values for one entry are separate records, joined by “and”; a condition that tells them apart may be missing. Identical values can stand only once. d = 2'-deoxy (DNA); m = 2'-O-methyl; f = 2'-fluoro
Key:
ras mRNA = assay: Northern blot analysis of ras expression in T24 cells; assay type: cell-based, human; design: inhibition of ras expression / decrease of ras mRNA: concentration or dose not given beside the values; conditions: T24 cells, Northern blot
Method: The human urinary bladder cancer cell line T24 was obtained from the American Type Culture Collection (Rockville Md.). Cells were grown in McCoy's 5A medium with L-glutamine (GIBCO-BRL, Gaithersburg, Md.), supplemented with 10% heat-inactivated fetal calf serum and 50 U/ml each of penicillin and streptomycin. Cells were seeded on 100 mm plates. When they reached 70% confluency, they were treated with oligonucleotide. Plates were washed with 10 ml prewarmed PBS and 5 ml of OptiMEM (GIBCO) reduced-serum medium containing 2.5 μl DOTMA. Oligonucleotide was then added to the desired concentration. After 4 hours of treatment, the medium was replaced with McCoy's medium. Cells were harvested 48 hours after oligonucleotide treatment and RNA was isolated using a standard CsCl purification method. [Kingston in Current Protocols in Molecular Biology, F. M. Ausubel, R. Brent, R. E. Kingston, D. D. Moore, J. A. Smith, J. G. Seidman and K. Strahl, Eds., John Wiley and Sons, New York.] The human epithelioid carcinoma cell line HeLa 229 was obtained from the American Type Culture Collection (Bethesda, Md.). HeLa cells were maintained as monolayers on 6-well plates in Dulbecco's Modified Eagle's medium (DMEM) supplemented with 10% fetal bovine serum and 100 U/ml penicillin. Treatment with oligonucleotide and isolation of RNA were essentially as described above for T24 cells.
Northern hybridization: 10 μg of each RNA was electrophoresed on a 1.2% agarose/formaldehyde gel and transferred overnight to GeneBind 45 nylon membrane (Pharmacia LKB, Piscataway, N.J.) using standard methods. [Kingston in Current Protocols in Molecular Biology, F. M. Ausubel, R. Brent, R. E. Kingston, D. D. Moore, J. A. Smith, J. G. Seidman and K. Strahl, Eds., John Wiley and Sons, New York.] RNA was UV-crosslinked to the membrane. Double-stranded ^32P-labeled probes were synthesized using the Prime a Gene labeling kit (Promega, Madison, Wis.). The ras probe was a SalI-NheI fragment of a cDNA clone of the activated (mutant) H-ras mRNA having a GGC-to-GTC mutation at codon-12. The control probe was G3PDH. Blots were prehybridized for 15 minutes at 68° C. with the QuickHyb hybridization solution (Stratagene, La Jolla, Calif.). The heat-denatured radioactive probe (2.5×10^6 counts/2 ml hybridization solution) mixed with 100 μl of 10 mg/ml salmon sperm DNA was added and the membrane was hybridized for 1 hour at 68° C. The blots were washed twice for 15 minutes at room temperature in 2×SSC/0.1% SDS and once for 30 minutes at 60° C. with 0.1×SSC/0.1%SDS. Blots were autoradiographed and the intensity of signal was quantitated using an ImageQuant PhosphorImager (Molecular Dynamics, Sunnyvale, Calif.). Northern blots were first hybridized with the ras probe, then stripped by boiling for 15 minutes in 0.1×SSC/0.1%SDS and rehybridized with the control G3PDH probe to check for correct sample loading.

[1] = system: mutant (activated) H-ras RNA; assay type: cell-based, human
[2] = system: complementary RNA strand (the sense strand); assay: Thermal melting analysis of 2′-deoxy-2′-fluoro modified antisense oligonucleotides with complementary RNA; assay type: binding; conditions: for Tm (° C.)/ subst.: change in Tm per 2′-fluoro substitution; for Tm (° C.): second Tm column: change in Tm versus unmodified oligonucleotide
[3] = first G°37 column: free energy of duplex with complementary RNA
[4] = second G°37 column: change versus unmodified oligonucleotide

## CTTATATTCCGTCATCGCTC [Oligonucleotide 2502]
Ras mRNA; listed as 2502
  inhibition of ras expression / decrease of ras mRNA: 26%

## TCCGTCATCGCTCCTCAGGG [Oligonucleotide 5122]
Ras mRNA; listed as 5122
  inhibition of ras expression / decrease of ras mRNA: 15%

## C^MC^MA^M C^MA^MC^M C^MG^MAd C^MG^MG^M C^MG^MC^M C^MC^M [Oligonucleotide 3975]
[1]
  inhibition of ras-luciferase activity: neither of the oligonucleotides having either the one or the three 2′-deoxy-erythro-pentofuranosyl nucleotide subsequences showed significant activity

## C^MC^MA^M C^MA^MC^M CdGdAd CdGdG^M C^MG^MC^M C^MC^M [Oligonucleotide 3980]
Ras mRNA
  inhibition of ras expression / decrease of ras mRNA: 61%
[1]
  inhibition of ras-luciferase activity: next greatest inhibition

## C^MC^MA^M C^MA^MC^M C^MGdAd CdG^MG^M C^MG^MC^M C^MC^M [Oligonucleotide 3979]
[1]
  inhibition of ras-luciferase activity: neither of the oligonucleotides having either the one or the three 2′-deoxy-erythro-pentofuranosyl nucleotide subsequences showed significant activity

## CsCsAsCoAoCoCoGoAoCoGoGoCoGsCsCsC [Oligonucleotide 4241]
[1]
  effect on ras expression: completely inactive

## C^FC^FA^F C^FA^FCd CdGdAd CdGdGd C^FG^FC^F C^FC^F [Oligonucleotide 4690]
Ras mRNA
  inhibition of ras expression / decrease of ras mRNA: 82%

## C^MC^MA^M C^MAdCd CdGdAd CdGdGd CdG^MC^M C^MC^M [Oligonucleotide 3984]
Ras mRNA
  inhibition of ras expression / decrease of ras mRNA: 81%

## CGACUAUGCAAG UAC (CGACUAUGCAAGUAC; chemistry not fully specified)
[2]
  Tm (° C.)/ subst.: +1.8 °C
  Tm (° C.): +20.1 °C
[2]; [3]
  G°37: -19.85 ± 0.05 kcal/mol
[2]; [4]
  G°37: -9.74 ± 0.06 kcal/mol

## CGA CUAUGCAAG UAC (CGACUAUGCAAGUAC; chemistry not fully specified)
[2]
  Tm (° C.)/ subst.: +1.7 °C
  Tm (° C.): +13.8 °C
[2]; [3]
  G°37: -16.18 ± 0.08 kcal/mol
[2]; [4]
  G°37: -6.07 ± 0.09 kcal/mol

## CsCsAsCsAsCsCsGsAoCsGsGsCsGsCsCsC [Oligonucleotide 4248]
[1]
  effect on ras expression: just as active as a full P═S molecule

## oligonucleotide with the 2′-O-propyl diester flanking regions: SEQ ID NO:1, phosphorothioate in the 7-base deoxy gap only, phosphodiester 2′-O-propyl flanking regions (DNA CCACACCGACGGCGCCC; sugars by position and backbone not given here; 2'-O-propyl phosphodiester flanks, 7-base phosphorothioate deoxy gap)
[1]
  effect on ras expression: able to inhibit ras expression

## CTTATATTCCGTCATCGCTC [Oligonucleotide 4998]
Ras mRNA; listed as 4998
  inhibition of ras expression / decrease of ras mRNA: 84%

## C^MC^MA^M C^MA^MCd CdGdAd CdGdGd C^MG^MC^M C^MC^M (antisense CCACACCGACGGCGCCC; sugars from the 5' end m5 d7 m5, backbone and methylation of C not given here) [Oligonucleotide 3985, 2′-O-methyl P═S chimera, 7-deoxy gap]
Ras mRNA
  inhibition of ras expression / decrease of ras mRNA: 95% and 81%
[1]
  inhibition of ras-luciferase activity: greatest inhibition

## Oligonucleotide 4689: SEQ ID NO:1, 2′-fluoro-modified nucleotides flanking a 5-deoxy gap (CCACACCGACGGCGCCC; sugars from the 5' end f6 d5 f6, all phosphorothioate, methylation of C not given here)
Ras mRNA
  inhibition of ras expression / decrease of ras mRNA: 63%

Source: patent publication US6531584B1, “2'modified oligonucleotides” (ISIS Pharmaceuticals, Inc., priority 1990, dated 2003)
